# Laboratory results reported in patent US20240124538A1, “Modulation of Wnt5a to Treat Glaucoma” (The Regents of the University of California, priority 2017, published 2024).
# Key:
# [1] = molecular target: T1, Wnt5a (Mus musculus, UniProt P22725); assay: Mouse model of pathogenic IOP, inhibitor delivered by eye drops; format: in vivo
# T1 construct: from tissue; host or cells: eye of living mice (Schlemm's canal / anterior chamber)
# T1 sequence (P22725 62-380): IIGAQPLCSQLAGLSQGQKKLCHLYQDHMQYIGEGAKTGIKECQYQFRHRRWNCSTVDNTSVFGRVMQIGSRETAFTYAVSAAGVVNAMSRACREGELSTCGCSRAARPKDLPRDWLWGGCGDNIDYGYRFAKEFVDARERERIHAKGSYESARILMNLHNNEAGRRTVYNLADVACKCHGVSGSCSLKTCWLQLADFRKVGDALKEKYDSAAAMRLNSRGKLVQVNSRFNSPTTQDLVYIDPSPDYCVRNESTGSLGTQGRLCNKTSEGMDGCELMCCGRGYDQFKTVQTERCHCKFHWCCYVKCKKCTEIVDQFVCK
# Procedure: In one protocol subconjuctival injection of siRNA is performed as described by Yuen et al. (2014, Invest Ophthalmol Vis Sci. 2014; 55:3320-3327). Mice are randomly selected to receive subconjunctival injection of 5 uL (0.2 1g/uL) siRNA or control twice a week for 2 weeks. In a second protocol intracameral injection of siRNA is performed as described by Tam et al. (2017, Scientific Reports 7, 40717). Mice are anaesthetized by intra-peritoneal injection, and pupils are dilated. A pulled blunt-ended micro-glass needle is first used to puncture the cornea to withdraw aqueous humour Immediately after puncture, a pulled blunt-ended micro-glass needle attached to a 10 μl syringe is inserted through the puncture, and 1.5 μl of PBS containing 1 μg siRNA is administered into the anterior chamber. Contralateral eyes receive an identical injection of 1.5 μl containing the same concentration of scrambled siRNA.
# [2] = molecular target: T2, Wnt5a (Oryctolagus cuniculus, UniProt Q27Q52); assay: Rabbit model of pathogenic IOP, inhibitor delivered by eye drops; format: in vivo
# T2 construct: New Zealand White rabbits receive a topical administration; from tissue; host or cells: eye of living New Zealand White rabbits
# T2 sequence (Q27Q52 62-380): T1 sequence (P22725 62-380)
# Source text: To assess the effect of siRNA delivered by eye drops on IOP, we developed an additional protocol based on the methods of Martinez et al. (Mol Ther. 2014 January; 22(1):81-91), wherein New Zealand White rabbits receive a topical administration of either 20 nmol/day of siRNA or phosphate-buffered saline (PBS) over a period of 4 consecutive days.
# [3] = Shinonaga et al. 2009; cited from earlier work
# [4] = system: WNT-5A; conditions: Shinonaga et al. 2009; cited from earlier work
substance,measurement,setting,value
"6,7-dihydro-10alpha-hydroxy radicicol",therapy of pathogenic IOP,[1],effective therapies for pathogenic IOP
same,therapy of pathogenic IOP,[2],effective therapies for pathogenic IOP
same,toxicity,[3],relatively low toxicity
same,WNT-5A expression inhibition,[4],potent WNT-5A expression inhibitor
